# “Also recorded” adds a separate entry of the source. Bridge positions count the residues as written; N and C are the ends. Ends that are not written are not given here.
# Assays:
# [1] = system: AVPR1A^CeA neurons; assay: Chemogenetic activation of AVPR1A^CeA neurons by CNO (cFos smFISH); assay type: in vivo, mouse; conditions: Avpr1a-Cre mice injected with the DREADD-Gq virus; single injection 1.5 mg/kg, i.p.
# Text: (A) Heat map for the expression of the 300 top genes at […], 7, 13 and 22 weeks of age (n=3). […] (D) Vgat and AVPR1A expression detected with smFISH in a coronal section of the CeA at bregma-1.34 mm. (E) Quantification of AVPR1A^CeA neurons. (F) AVPR1A-Cre::tdTomato reporter expression in a coronal section of the CeA at bregma-1.34 mm. (G-L) Chemogenetic activation of AVPR1A^CeA neurons. (G) Schematic of bilateral injections of AAV-DIO-DREADD-Gq-mCherry (closed circles) vs. AAV-DIO-mCherry controls (open circles) in the CeA of Avpr1a-Cre adult mice. (H) Expression of the viral mCherry reporter in the CeA. High-magnification image showing Avpr1a and cFos expression detected with smFISH 1 h after CNO injections in mice injected with control (lower panel) and DREADD-Gq-mCherry (upper panel) AAVs. (I-L) Effects of CNO injections on marble burying (I), time spent in the open arms of the EPM (J), time spent in the center of the open field (K), and distance traveled in the open field (L) in mice injected with control and DREADD-Gq AAVs (n=6-9). Data are presented as means+/−SEM in E.
# We utilized a chemogenetic approach to overcome this technical issue that prevented direct comparisons of males and females. […]
# [2] = system: WT mice; assay: Marble burying assay after i.p. antagonist injection; assay type: in vivo, mouse; conditions: 2 mg/kg
# Method: Chronic social Isolation: Mice were singly housed at 5 weeks of age for 7 weeks in standard cages. Control groups included mice isolated at 8 weeks of age for 2 weeks, or at 8 weeks of age for 7 weeks. An additional control group included mice socially isolated at 8 weeks of age for 7 weeks and regrouped at 15 weeks for 3 weeks.
# All behavioral assays were performed after lights out (7 pm).
# Marble burying: Standard cages were filled with fresh bedding to a depth of 2.5 in and 15 marbles were evenly spaced across the bedding. […] At the end of the assay, the number of marbles buried was estimated visually. A marble was considered buried if at least ¾ of its surface was covered by the bedding.
# Peripheral antagonist injections: Injections of SRX246 (AVPR1A antagonist, 2 mg/kg, i.p.), SR49059 (AVPR1A antagonist, 2 mg/kg, i.p.), SSR149415 (AVPR1B antagonist, 2 mg/kg, i.p.), d(CH2)5Tyr(Me)-[Orn8]-vasotocin (Oxytocin receptor antagonist, 2 mg/kg, i.p.), or 1% DMSO (Sigma Aldrich, i.p.) were performed in WT adults.
# [3] = system: central AVPR1A circuits; assay: Food intake following amygdala injection of AVP; assay type: in vivo, mouse
# [4] = system: WT and Avpr1a-/- females; assay: Marble burying after bilateral intra-CeA AVP injection; assay type: in vivo, mouse; conditions: 1 ng AVP bilateral
# Method: For cannulations, ophthalmic ointment and analgesics were administered (buprenorphine, 0.1 mg/kg or buprenorphine Ethiqa XR, 3.25 mg/kg, and carprofen, 5 mg/kg, subcutaneous). Two cannulas (Model C317GS, Plastics One) were placed by drilling holes at the following coordinates: +/−2.4 mm lateral, −1.4 mm anteroposterior and −4.6 mm ventral from Bregma. Implants were secured by dental cement and protected with a cap (Model C317DCS, Plastics One).
# Marble burying: Standard cages were filled with fresh bedding to a depth of 2.5 in and 15 marbles were evenly spaced across the bedding. Animals were placed in the cage for 30 min and allowed to ambulate freely. At the end of the assay, the number of marbles buried was estimated visually. A marble was considered buried if at least ¾ of its surface was covered by the bedding.
# Intra-amygdala AVP injections: Prior to marble burying, adult WT and Avpr1a^−/− females were bilaterally injected with 1 ng of AVP or 0.9% saline via in-dwelling cannulas using a Hamilton syringe (Hamilton 7635-01) connected to an injector (Model C317IS, Plastics One).
# [5] = system: male rats; conditions: males; AVP delivered into the CeA (Hernandez et al., 2016; Hernandez-Perez et al., 2018); cited from earlier work
compound,measurement,setting,value
"C[N+]1([O-])CCN(C2=Nc3cc(Cl)ccc3Nc3ccccc32)CC1 [CNO, clozapine-N-oxide]",activation of AVPR1A^CeA neurons,[1],acutely activated AVPR1A^CeA neurons
COc1ccc(S(=O)(=O)N2c3ccc(Cl)cc3[C@](O)(c3ccccc3Cl)[C@@H]2C(=O)N2CCC[C@H]2C(N)=O)cc1OC [SR49059],marble burying,[2]; female WT mice exposed to >7 weeks CSIS starting at 5 or 8 weeks of age,had no effect
same,marble burying,[2]; male WT mice exposed to >7 weeks CSIS starting at 5 or 8 weeks of age,had no effect
same,food intake: blockade of the anorexigenic effects of AVP,"[3]; AVP (0.3 ng) injected in the amygdala, peripheral injection of antagonist (Manning compound; SR49059 2 mg/kg)",does not restore food intake
"AVP: AVP (vasopressin), the AVPR1A ligand, injected into the amygdala/CeA (CYFQNCPRG-NH2; disulfide 1-6; UniProt P01185 20-28, looked up)",effect on food intake,[3]; AVP 0.3 ng injected in the amygdala,anorexigenic effects
same,marble burying / anxiety behavior,[4]; global knockout Avpr1a-/- females,had no effect
same,marble burying / anxiety behavior,[4]; group housed WT females,trigger anxiety behavior in WT females; also recorded: increased marble burying
same,anxiety-related behaviors,[5],can induce anxiety-like behaviors in males; also recorded: increase anxiety-related behaviors in males; also recorded: elicited anxiety-related behaviors
d(CH2)5Tyr(Me)-[Orn8]-vasotocin [OXR antagonist],marble burying (15 min),[2]; female mice exposed to CSIS,did not affect behavior in females or males
same,marble burying (15 min),[2]; male mice exposed to CSIS,did not affect behavior in females or males
COc1ccc(S(=O)(=O)N2C(=O)[C@@](c3ccccc3OC)(N3C[C@H](O)C[C@H]3C(=O)N(C)C)c3cc(Cl)ccc32)c(OC)c1 [AVPR1B antagonist],marble burying (15 min),[2]; female mice exposed to CSIS,did not affect behavior in females or males
same,marble burying (15 min),[2]; male mice exposed to CSIS,did not affect behavior in females or males

# Reference: US20250195496A1, “AVPR1A BLOCKADE TO REDUCE SOCIAL ISOLATION-INDUCED ANXIETY IN FEMALES” (THE TRUSTEES OF COLUMBIA UNIVERSITY IN THE CITY OF NEW YORK, priority 2022, published 2025)
